# Literature values, collected in patent publication US6183121A, “Hepatitis C virus helicase crystals and coordinates that define helicase binding pockets” (priority 1998, dated 2001).
# Biological target: UvrD helicase, mutation of a conserved arginine in motif IV (Escherichia coli, UniProt P03018, R284A)
# Settings: mutant versus unmutated UvrD; M. C. Hall et al., J. Biol. Chem., 272 (1997)
# Chain of UvrD helicase, mutation of a conserved arginine in motif IV (P03018 whole entry R284A): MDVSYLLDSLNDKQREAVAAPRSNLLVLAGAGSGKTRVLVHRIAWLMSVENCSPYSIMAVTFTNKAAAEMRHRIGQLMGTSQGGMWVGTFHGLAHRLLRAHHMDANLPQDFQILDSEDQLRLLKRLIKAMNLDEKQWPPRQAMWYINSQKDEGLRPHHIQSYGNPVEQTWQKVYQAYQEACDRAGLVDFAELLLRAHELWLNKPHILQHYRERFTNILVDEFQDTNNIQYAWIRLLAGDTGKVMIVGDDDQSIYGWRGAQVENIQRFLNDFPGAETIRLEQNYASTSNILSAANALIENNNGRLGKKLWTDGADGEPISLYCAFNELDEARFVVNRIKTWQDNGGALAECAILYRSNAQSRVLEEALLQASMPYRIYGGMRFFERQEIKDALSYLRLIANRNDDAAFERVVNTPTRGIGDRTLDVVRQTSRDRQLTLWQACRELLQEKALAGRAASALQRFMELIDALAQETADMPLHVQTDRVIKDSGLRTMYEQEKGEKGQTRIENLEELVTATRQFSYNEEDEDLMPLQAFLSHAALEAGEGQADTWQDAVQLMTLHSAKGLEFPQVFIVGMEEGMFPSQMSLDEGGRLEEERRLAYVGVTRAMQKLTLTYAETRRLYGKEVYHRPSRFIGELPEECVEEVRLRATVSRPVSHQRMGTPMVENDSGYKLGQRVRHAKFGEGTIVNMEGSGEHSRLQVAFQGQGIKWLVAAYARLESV
smiles,measurement,value
Nc1ncnc2c1ncn2[C@@H]1O[C@H](COP(=O)(O)OP(=O)(O)OP(=O)(O)O)[C@@H](O)[C@H]1O [ATP],increase of the ATP Km,37 fold
